Test results published in US10487045B2, “Adamantane derivative and use thereof” (TOHOKU UNIVERSITY, priority 2016, dated 2019).

Assays:
Type in all cases: in vivo
[1] = test system: WT mice administered with corticosterone; test: Anxiety-related behavioral tests (elevated plus-maze, light/dark, marble burying, open field, fear conditioning) in WT mice administered with corticosterone; settings: WT mice + corticosterone 5 mg/kg; TP-014 1 mg/kg oral once a day for 2 weeks; all five tests
Description: Using WT mice (C57BL/6J, Japan SLC, two months old) administered with corticosterone (dose of 5 mg/kg was administered once a day for 2 weeks); and Kir6.1 defective mice administered with corticosterone, as disease model mice showing anxiety-like symptoms, five behavioral tests regarding anxiety-related behavior were conducted. Note that, the Kir6.1 defective mice were obtained from Professor Susumu Seino, School of Medicine of Kobe University (Miki T et al., Nature Medicine 2002, 8, 466-472).
To the WT mice and Kir6.1 defective mice administered with corticosterone, TP-014 (1 mg/kg) was administered via the oral route once a day for 2 weeks (chronic treatment). As a result, it was confirmed that a significant anxiety symptom acceleration improving effect was obtained. […]
The time until a mouse placed in a black box (dark place) feels anxiety to light and comes out of the box to a bright place) was measured. […]
In the cage for housing a mouse is filled with wood chip bedding and 20 marbles are placed such that a mouse can see them. […] The number of marbles buried and hidden in the wood chip bedding is counted. […]
Using the same test apparatus as in the light/dark test method, a mouse is placed in a dark place, and then, sound (treble) is produced for 30 seconds and thereafter electrical stimulation is given for 3 seconds. […] The immobility time of the mouse is measured. […]

CaMKIV defective mice = test: Tail-suspension and forced swim methods in CaMKIV defective mice
Description: OBX mice were originally established as depression model mice although a deterioration of cognitive function was observed. Depression was analyzed by a tail-suspension method (a) and a forced swim method (b). The tail-suspension method is a method of pinching the tail of a mouse and hanging the mouse upside down. If the mouse hung has depression, immobility time is long. Since a normal mouse moves even if it is hung, the immobility time is short. In the forced swim method, a mouse is forced to swim in water in a beaker. A mouse having depression neither swims nor moves (just floating). Thus the immobility time is measured. Immobility time was long in OBX mice both in the tail-suspension method (a) and the forced swim method (b). The immobility time of a TP-014 chronic administration group (2 weeks, in the same administration method as that previously mentioned) was improved.
CaMKIV induced by Kir6.1 channel was analyzed by using CaMKIV defective mice (n=5, per group*) in the same manner as in FIG. 12. Acceleration of depression-like symptom was observed also in the CaMKIV defective mice. […] TP-014 had no effect on CaMKIV depression-like symptom (increase of immobility time). […] CaMKIV defective mice were obtained from professor, Hiroyuki Sakagami, Kitasato University School of Medicine (Takao K et al., PLoS One 2010, 5, e9460).

APP23 mice = test: Immunoblotting of hippocampus for phosphorylation of CaMKII, CaMKIV and ERK; settings: APP23 mice chronically treated, conditions as Test Example 4
Description: The hippocampus of APP23 mouse was excised out. To hippocampal slices, an SDS sample buffer was added to prepare a suspension, which was subjected to immunoblotting using antibodies against CaMKII, CaMKIV and ERK (CaMKII: Fukunaga et al., J. Biol. Chem. 1992, 267, 22527-22533, CaMKIV: Kasahara et al., J. Biol. Chem. 2001, 276, 24044-24050, ERK: manufactured by Sigma-Aldrich). In this manner, phosphorylation of the individual proteins was analyzed. CaMKII, CaMKIV and ERK are molecules all considered to play an important role in memory formation. As a result, it was observed that phosphorylation of CaMKII decreases in ordinary APP23 mice; whereas, in APP23 mice chronically treated with TP-014 (the treatment conditions are the same as in the case of Test Example 4), phosphorylation of CaMKII is accelerated.
GluA1 (Ser-831), Synapsin I (Ser-603) and CREB (Ser-133), which are molecules known to be activated if CaMKII is activated. These molecules were analyzed by immunoblotting of hippocampal slice sections suspended in an SDS sample buffer. Antibodies against the individual molecules were obtained from Millipore. It is shown that activation of GluA1 (Ser-831) and CREB (Ser-133) is induced by activation of CaMKII. FIG. 5a and FIG. 5c show bands (image) actually obtained by electrophoresis of immunoblots.

Structure (SMILES): O=C(N[C@@H](c1ccccc1)[C@H]1[C@H]2C[C@@H]3C[C@](Cl)(C2)C[C@@]1(OC(=O)C(F)(F)F)C3)C(F)(F)F [TP-014, (1S,2R,3S,5S,7S)-5-chloro-2-((R)-phenyl(2,2,2-trifluoroacetamido)methyl)adamantan-1-yl 2,2,2-trifluoroacetate]
- acceleration of anxiety-like symptom [1]: improve acceleration of anxiety-like symptom
- depression-like symptom (increase of immobility time) in CaMKIV defective mice (CaMKIV defective mice): no effect
- phosphorylation of CaMKII in hippocampus (APP23 mice): accelerated
